For this test, the system named is MSH3. Kind of test: QPCR assay for levels of MSH3 upon compound treatment in HEK293T or AD293 cells (fold-change of MSH3 transcript, EC50 of MSH3 downregulation; total MSH3 exons 13/14, exons 20/21; Table 8). The following applies: for mrna remaining at 1 µM / mrna remaining at 10 µM: Homo sapiens, fold-change of the MSH3 transcript, normalized to GAPDH; for mrna remaining at 1 µM: 1 μM compound; for mrna remaining at 10 µM: 10 μM compound; for EC50: EC50 of MSH3 downregulation, XtalPi. Format: cell-based. The method in brief:
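MSH3 mRNA was quantified by TaqMan qPCR covering exons 13/14, exons 20/21, exon 13/PE14A and exon 20/PE21A, with GAPDH as reference. Cells used were HEK293T or AD293, treated with compound at 1 μM and […].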

For orientation: EC50 means the concentration at which the effect is half-maximal. Lower therefore signals greater potency.

SMILES strings stand for the structures.

With `Cc1nn(C)nc1-c1cnc2c(n1)C(=O)N(c1ccc(OC3CC(C)(C)NC4(CCC4)C3)nn1)C2` (centres unmarked) [Compound 500, 3-(2,5-dimethyl-2H-1,2,3-triazol-4-yl)-6-(6-((6,6-dimethyl-5-azaspiro[3.5]nonan-8-yl)oxy)pyridazin-3-yl)-6,7-dihydro-5H-pyrrolo[3,4-b]pyrazin-5-one], the mrna remaining at 1 µM amounted to 101% and the mrna remaining at 10 µM was 22%.
The like results for `Cn1nc(Cl)c(-c2cnc3c(n2)C(=O)N(c2ccc(O[C@H]4C[C@]5(C)CC[C@](C)(C4)N5)nn2)C3)n1` [Compound 503, 3-(5-chloro-2-methyl-2H-1,2,3-triazol-4-yl)-6-(6-(((1R,3s,5S)-1,5-dimethyl-8-azabicyclo[3.2.1]octan-3-yl)oxy)pyridazin-3-yl)-6,7-dihydro-5H-pyrrolo[3,4-b]pyrazin-5-one] were, in that order, 70% and 18%.
The like results for `Cn1nc(Cl)c(-c2cnc3c(n2)C(=O)N(c2ccc(OC4CCC(C)(C)NC(C)(C)C4)nn2)C3)n1` (centres unmarked) [Compound 509, 3-(5-chloro-2-methyl-2H-1,2,3-triazol-4-yl)-6-(6-((2,2,7,7-tetramethylazepan-4-yl)oxy)pyridazin-3-yl)-6,7-dihydro-5H-pyrrolo[3,4-b]pyrazin-5-one] were, in that order, 117% and 62%.
The like results for `Cc1nn(C)nc1-c1cnc2c(c1)C(=O)N(c1ccc(N3CC4CNC4C3)nn1)C2` (centres unmarked) [Compound 559, 6-(6-(3,6-diazabicyclo[3.2.0]heptan-3-yl)pyridazin-3-yl)-3-(2,5-dimethyl-2H-1,2,3-triazol-4-yl)-6,7-dihydro-5H-pyrrolo[3,4-b]pyridin-5-one] were, in that order, 93% and 53%.
Consider `Cc1nn(C)nc1-c1cnc2c(c1)C(=O)N(c1ccc(N3CC4CC3CN4)nn1)C2` (centres unmarked) [Compound 560, 6-(6-(2,5-diazabicyclo[2.2.1]heptan-2-yl)pyridazin-3-yl)-3-(2,5-dimethyl-2H-1,2,3-triazol-4-yl)-6,7-dihydro-5H-pyrrolo[3,4-b]pyridin-5-one], for which the mrna remaining at 1 µM is 81% and the mrna remaining at 10 µM was determined as 29%.
For `Cc1nn(C)nc1-c1cnc2c(c1)C(=O)N(c1ccc(N3CC4CCC3CN4)nn1)C2` (centres unmarked) [Compound 563, 6-(6-(2,5-diazabicyclo[2.2.2]octan-2-yl)pyridazin-3-yl)-3-(2,5-dimethyl-2H-1,2,3-triazol-4-yl)-6,7-dihydro-5H-pyrrolo[3,4-b]pyridin-5-one] the same measures were 104% and 35%.
The like results for `Cc1nn(C)nc1-c1cnc2c(c1)C(=O)N(c1ccc(N3CCC4(CCCN4)C3)nn1)C2` (centres unmarked) [Compound 566, 6-(6-(1,7-diazaspiro[4.4]nonan-7-yl)pyridazin-3-yl)-3-(2,5-dimethyl-2H-1,2,3-triazol-4-yl)-6,7-dihydro-5H-pyrrolo[3,4-b]pyridin-5-one] were, in that order, 133% and 60%.
On to `Cc1nn(C)nc1-c1cnc2c(c1)C(=O)N(c1ccc(N3C[C@H]4CC[C@@H](C3)N4)nn1)C2` [Compound 568, 6-(6-((1R,5S)-3,8-diazabicyclo[3.2.1]octan-3-yl)pyridazin-3-yl)-3-(2,5-dimethyl-2H-1,2,3-triazol-4-yl)-6,7-dihydro-5H-pyrrolo[3,4-b]pyridin-5-one], for which the mrna remaining at 1 µM worked out at 77% and the mrna remaining at 10 µM was 46%.
As to `CN(c1ccc(N2Cc3ncc(-c4nn(C)nc4Cl)cc3C2=O)nn1)[C@H]1C[C@]2(C)CC[C@](C)(C1)N2` [Compound 589, 3-(5-chloro-2-methyl-2H-1,2,3-triazol-4-yl)-6-(6-(((1R,3s,5S)-1,5-dimethyl-8-azabicyclo[3.2.1]octan-3-yl)(methyl)amino)pyridazin-3-yl)-6,7-dihydro-5H-pyrrolo[3,4-b]pyridin-5-one], the EC50 is 349 nM, the mrna remaining at 1 µM is 20% and the mrna remaining at 10 µM was determined as 11%.
Turning to `Cc1nn(C)nc1-c1cnc2c(n1)C(=O)N(c1ccc(N(C)[C@H]3C[C@]4(C)CC[C@](C)(C3)N4)nn1)C2` [Compound 590, 3-(2,5-dimethyl-2H-1,2,3-triazol-4-yl)-6-(6-(((1R,3s,5S)-1,5-dimethyl-8-azabicyclo[3.2.1]octan-3-yl)(methyl)amino)pyridazin-3-yl)-6,7-dihydro-5H-pyrrolo[3,4-b]pyrazin-5-one], the concentration giving a half-maximal response (EC50) was 569 nM, the mrna remaining at 1 µM is 24% and the mrna remaining at 10 µM was determined as 9%.
For `Cc1cn(-c2cc(C#N)c3c(c2)C(=O)N(c2ccc(O[C@H]4C[C@]5(C)CC[C@](C)(C4)N5)nn2)C3)nn1` [Compound 591, 2-(6-(((1R,3s,5S)-1,5-dimethyl-8-azabicyclo[3.2.1]octan-3-yl)oxy)pyridazin-3-yl)-6-(4-methyl-1H-1,2,3-triazol-1-yl)-1-oxoisoindoline-4-carbonitrile] the same measures were 634 nM, 109% and 91%.
On to `Cc1nn(C)nc1-c1ncc2c(n1)C(=O)N(c1ccc(O[C@H]3C[C@]4(C)CC[C@](C)(C3)N4)nn1)C2` [Compound 592, 2-(2,5-dimethyl-2H-1,2,3-triazol-4-yl)-6-(6-(((1R,3s,5S)-1,5-dimethyl-8-azabicyclo[3.2.1]octan-3-yl)oxy)pyridazin-3-yl)-5,6-dihydro-7H-pyrrolo[3,4-d]pyrimidin-7-one], for which the mrna remaining at 1 µM stood at 90% and the mrna remaining at 10 µM is 54%.
The like results for `Cc1nn(C)cc1-c1cc2c(cn1)CN(c1ccc(OC3CC(C)(C)NC4(CCC4)C3)nn1)C2=O` (centres unmarked) [Compound 593, 6-(1,3-dimethyl-1H-pyrazol-4-yl)-2-(6-((6,6-dimethyl-5-azaspiro[3.5]nonan-8-yl)oxy)pyridazin-3-yl)-2,3-dihydro-1H-pyrrolo[3,4-c]pyridin-1-one] were, in that order, 105% and 34%.
For `CC(C)(O)Cn1cc(-c2cc3c(cn2)CN(c2ccc(O[C@H]4C[C@]5(C)CC[C@](C)(C4)N5)nn2)C3=O)cn1` [Compound 594, 2-(6-(((1R,3s,5S)-1,5-dimethyl-8-azabicyclo[3.2.1]octan-3-yl)oxy)pyridazin-3-yl)-6-(1-(2-hydroxy-2-methylpropyl)-1H-pyrazol-4-yl)-2,3-dihydro-1H-pyrrolo[3,4-c]pyridin-1-one] the same measures were 79% and 112%.
As for `Cc1nn(C)cc1-c1cc2c(nn1)CN(c1ccc(O[C@H]3C[C@]4(C)CC[C@](C)(C3)N4)nn1)C2=O` [Compound 595, 3-(1,3-dimethyl-1H-pyrazol-4-yl)-6-(6-(((1R,3s,5S)-1,5-dimethyl-8-azabicyclo[3.2.1]octan-3-yl)oxy)pyridazin-3-yl)-6,7-dihydro-5H-pyrrolo[3,4-c]pyridazin-5-one], the mrna remaining at 1 µM was found to be 91% and the mrna remaining at 10 µM turned out to be 18%.
The like results for `Cc1nn(C)nc1-c1cc2c(nn1)CN(c1ccc(O[C@H]3C[C@]4(C)CC[C@](C)(C3)N4)nn1)C2=O` [Compound 596, 3-(2,5-dimethyl-2H-1,2,3-triazol-4-yl)-6-(6-(((1R,3s,5S)-1,5-dimethyl-8-azabicyclo[3.2.1]octan-3-yl)oxy)pyridazin-3-yl)-6,7-dihydro-5H-pyrrolo[3,4-c]pyridazin-5-one] were, in that order, 88% and 106%.
The like results for `Cc1nn(C)cc1-c1cnc2c(c1)C(=O)N(c1ccc(OC3CC(C)(C)NC4(CCC4)C3)nn1)C2` (centres unmarked) [Compound 597, 3-(1,3-dimethyl-1H-pyrazol-4-yl)-6-(6-((6,6-dimethyl-5-azaspiro[3.5]nonan-8-yl)oxy)pyridazin-3-yl)-6,7-dihydro-5H-pyrrolo[3,4-b]pyridin-5-one] were, in that order, 98% and 29%.
For `Cc1ncc(-c2cnc3c(c2)C(=O)N(c2ccc(O[C@H]4C[C@]5(C)CC[C@](C)(C4)N5)nn2)C3)s1` [Compound 598, 6-(6-(((1R,3s,5S)-1,5-dimethyl-8-azabicyclo[3.2.1]octan-3-yl)oxy)pyridazin-3-yl)-3-(2-methylthiazol-5-yl)-6,7-dihydro-5H-pyrrolo[3,4-b]pyridin-5-one] the same measures were 62% and 52%.
For `Cn1ncc(-c2cnc3c(c2)C(=O)N(c2ccc(O[C@H]4C[C@]5(C)CC[C@](C)(C4)N5)nn2)C3)n1` [Compound 599, 6-(6-(((1R,3s,5S)-1,5-dimethyl-8-azabicyclo[3.2.1]octan-3-yl)oxy)pyridazin-3-yl)-3-(2-methyl-2H-1,2,3-triazol-4-yl)-6,7-dihydro-5H-pyrrolo[3,4-b]pyridin-5-one], the mrna remaining at 1 µM came out at 94% and the mrna remaining at 10 µM worked out at 24%.
On to `Cc1nn(C)nc1-c1cnc2c(c1)C(=O)N(c1ccc(N3CCN[C@@H](C(C)(C)C)C3)nn1)C2` [Compound 600, (S)-6-(6-(3-(tert-butyl)piperazin-1-yl)pyridazin-3-yl)-3-(2,5-dimethyl-2H-1,2,3-triazol-4-yl)-6,7-dihydro-5H-pyrrolo[3,4-b]pyridin-5-one], for which the mrna remaining at 1 µM was 104% and the mrna remaining at 10 µM was 14%.
For `Cn1ncc(-c2cnc3c(c2)C(=O)N(c2ccc(OC4CC(C)(C)NC5(CCC5)C4)nn2)C3)n1` (centres unmarked) [Compound 601, 6-(6-((6,6-dimethyl-5-azaspiro[3.5]nonan-8-yl)oxy)pyridazin-3-yl)-3-(2-methyl-2H-1,2,3-triazol-4-yl)-6,7-dihydro-5H-pyrrolo[3,4-b]pyridin-5-one] the same measures were 117% and 82%.
As to `Cc1nn(C)cc1-c1cnc2c(c1)C(=O)N(c1ccc(N3CCN[C@@H](C(C)C)C3)nn1)C2` [Compound 602, (S)-3-(1,3-dimethyl-1H-pyrazol-4-yl)-6-(6-(3-isopropylpiperazin-1-yl)pyridazin-3-yl)-6,7-dihydro-5H-pyrrolo[3,4-b]pyridin-5-one], the mrna remaining at 1 µM amounted to 64% and the mrna remaining at 10 µM worked out at 29%.

(Values after patent US20260315464A1, “COMPOSITIONS, METHODS, AND SYSTEMS FOR MODULATING SPLICING OF MSH3” (REVIR THERAPEUTICS, INC., priority 2023, published 2026).)
